EP4741392A1, “1H-PYRAZOLO[4,3-C]PYRIDINE COMPOUND, AND COMPOSITION THEREOF AND USE THEREOF” (Shenzhen TargetRx Co., Ltd., priority 2023, dated 2025)
Read-outs that look alike come from different tables or passages of the source.

Experiments:
Format in all cases: cell-based
NIH/3T3 BTK C481S cells = experiment: Phosphor-BTK(Y223) assay, adherent cells; conditions: read-out: NIH/3T3 BTK-C481S pBTK
Procedure, shortened: (§1)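 NIH/3T3 cells expressing WT or C481S BTK were pretreated with compound for 0.5 h at 37 °C, then stimulated with 1 mM Na3VO4 (final) for 2 h. Lysates were assayed by HTRF for p-BTK Y223 using the 665/620 nm ratio. IC50 was obtained by nonlinear fit of % inhibition versus 0.5% DMSO control.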

NIH/3T3 BTK WT cells = experiment: Phosphor-BTK(Y223) assay, adherent cells; conditions: read-out: NIH/3T3 BTK-WT pBTK
Procedure, shortened: as §1

Ramos cells with BTK WT = experiment: Phosphor-BTK(Y223) assay, suspended cells; conditions: phosphorylated BTK Y223, Ramos cells with BTK WT
Procedure, shortened: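 Ramos BTK WT cells (2.5 k/well) were treated with compound dilutions for 2 h at 37 °C, then 5 mM Na3VO4 for 3 h. Lysates were read by HTRF p-BTK(Y223) cryptate/d2 antibodies overnight at RT (665/620 ratio). IC50 came from a four-parameter fit of % inhibition versus blank and positive-control wells.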

[1] = Mus musculus, NIH3T3, phosphorylated BTK Y223, NIH/3T3 BTK C481S cells
[2] = Mus musculus, NIH3T3, phosphorylated BTK Y223, NIH/3T3 BTK WT cells
[3] = phosphorylated BTK Y223, NIH/3T3 BTK C481S cells
[4] = phosphorylated BTK Y223, NIH/3T3 BTK WT cells

## CCN1CCc2nc(-c3cnc(-c4ccc(CNC(=O)c5cc(F)ccc5OC)cc4)c4c(N)n[nH]c34)sc2C1 [Example 101, N-(4-(3-amino-7-(5-ethyl-4,5,6,7-tetrahydrothiazolo[5,4-c]pyridin-2-yl)-1H-pyrazolo[4,3-c]pyridin-4-yl)benzyl)-5-fluoro-2-methoxybenzamide]
NIH/3T3 BTK C481S cells; [1]
  IC50: ≤ 5 nM
NIH/3T3 BTK WT cells; [2]
  IC50: ≤ 5 nM
Ramos cells with BTK WT; Homo sapiens, Ramos
  IC50: ≤ 5 nM

## COc1ccc(F)cc1C(=O)NCc1ccc(-c2ncc(-c3ccc4cn[nH]c4n3)c3[nH]nc(N)c23)cc1 [Example 47, N-(4-(3-amino-7-(1H-pyrazolo[3,4-b]pyridin-6-yl)-1H-pyrazolo[4,3-c]pyridin-4-yl)benzyl)-5-fluoro-2-methoxybenzamide]
NIH/3T3 BTK C481S cells; [1]
  IC50: 10 to 50 nM
NIH/3T3 BTK WT cells; [2]
  IC50: 5 to 10 nM
Ramos cells with BTK WT; Homo sapiens, Ramos
  IC50: 5 to 10 nM

## COc1ccc(F)cc1C(=O)NCc1ccc(-c2ncc(-c3ccc(CN4CCN(C)CC4)cn3)c3[nH]nc(N)c23)cc1 [Example 68, N-(4-(3-amino-7-(5-((4-methylpiperazin-1-yl)methyl)pyridin-2-yl)-1H-pyrazolo[4,3-c]pyridin-4-yl)benzyl)-5-fluoro-2-methoxybenzamide]
NIH/3T3 BTK C481S cells; [1]
  IC50: ≤ 5 nM
NIH/3T3 BTK WT cells; [2]
  IC50: ≤ 5 nM
Ramos cells with BTK WT; Homo sapiens, Ramos
  IC50: ≤ 5 nM

## COc1ccc(F)cc1C(=O)NCc1ccc(-c2ncc(-c3cn4ccnc4cn3)c3[nH]nc(N)c23)cc1 [Example 50, N-(4-(3-amino-7-(imidazo[1,2-a]pyrazin-6-yl)-1H-pyrazolo[4,3-c]pyridin-4-yl)benzyl)-5-fluoro-2-methoxybenzamide]
NIH/3T3 BTK C481S cells; [1]
  IC50: 5 to 10 nM
NIH/3T3 BTK WT cells; [2]
  IC50: ≤ 5 nM
Ramos cells with BTK WT; Homo sapiens, Ramos
  IC50: 5 to 10 nM

## COc1ccc(F)cc1C(=O)NCc1ccc(-c2ncc(-c3nc4cnccn4n3)c3[nH]nc(N)c23)cc1 [Example 57, N-(4-(7-([1,2,4]triazolo[1,5-a]pyrazin-2-yl)-3-amino-1H-pyrazolo[4,3-c]pyridin-4-yl)benzyl)-5-fluoro-2-methoxybenzamide]
NIH/3T3 BTK C481S cells; [1]
  IC50: 5 to 10 nM
NIH/3T3 BTK WT cells; [2]
  IC50: ≤ 5 nM
Ramos cells with BTK WT; Homo sapiens, Ramos
  IC50: 10 to 50 nM

## C=CC(=O)N1CCCC(c2cc3[nH]nc(N)c3c(-c3ccc(CNC(=O)c4cc(F)ccc4OC)cc3)n2)C1 (stereo not drawn) [Example 96, N-(4-(6-(1-acryloylpiperidin-3-yl)-3-amino-1H-pyrazolo[4,3-c]pyridin-4-yl)benzyl)-5-fluoro-2-methoxybenzamide]
NIH/3T3 BTK C481S cells; [1]
  IC50: > 50 nM
NIH/3T3 BTK WT cells; [2]
  IC50: 10 to 50 nM
Ramos cells with BTK WT; Homo sapiens, Ramos
  IC50: ≤ 5 nM

## COc1ccc(F)cc1C(=O)NCc1ccc(-c2ncc(-c3ccc(N4CCN(C)C[C@H]4C)cn3)c3[nH]nc(N)c23)cc1 [Example 75, (R)-N-(-4-(3-amino-7-(5-(2,4-dimethylpiperazin-1-yl)pyridin-2-yl) 1H-pyrazolo[4,3-c]pyridin-4-yl)benzyl)-5-fluoro-2-methoxybenzamide]
NIH/3T3 BTK C481S cells; [1]
  IC50: ≤ 5 nM
NIH/3T3 BTK WT cells; [2]
  IC50: ≤ 5 nM
Ramos cells with BTK WT; Homo sapiens, Ramos
  IC50: ≤ 5 nM

## COc1ccc(F)cc1C(=O)NCc1ccc(-c2nc(C(F)F)c(-c3ncccn3)c3[nH]nc(N)c23)cc1 [Example 85, N-(4-(3-amino-6-(difluoromethyl)-7-(pyrimidin-2-yl)-1H-pyrazolo[4,3-c]pyridin-4-yl)benzyl)-5-fluoro-2-methoxybenzamide]
NIH/3T3 BTK C481S cells; [1]
  IC50: 5 to 10 nM
NIH/3T3 BTK WT cells; [2]
  IC50: ≤ 5 nM
Ramos cells with BTK WT; Homo sapiens, Ramos
  IC50: ≤ 5 nM

## CNC(=O)Cn1ccc(-c2cnc(-c3ccc(CNC(=O)c4cc(F)ccc4OC)cc3)c3c(N)n[nH]c23)n1 [Example 26, N-(4-(3-amino-7-(1-(2-(methylamino)-2-oxoethyl)-1H-pyrazol-3-yl)-1H-pyrazolo[4,3-c]pyridin-4-yl)benzyl)-5-fluoro-2-methoxybenzamide]
NIH/3T3 BTK C481S cells; [1]
  IC50: 10 to 50 nM
NIH/3T3 BTK WT cells; [2]
  IC50: 10 to 50 nM
Ramos cells with BTK WT; Homo sapiens, Ramos
  IC50: ≤ 5 nM

## COc1ccc(F)cc1C(=O)NCc1ccc(-c2ncc(-c3ccncc3)c3[nH]nc(N)c23)cc1 [Example 106, N-(4-(3-amino-7-(pyridin-4-yl)-1H-pyrazolo[4,3-c]pyridin-4-yl)benzyl)-5-fluoro-2-methoxybenzamide]
NIH/3T3 BTK C481S cells; [1]
  IC50: > 50 nM
NIH/3T3 BTK WT cells; [2]
  IC50: > 50 nM
Ramos cells with BTK WT; Homo sapiens, Ramos
  IC50: > 50 nM

## COc1ccc(F)cc1C(=O)NCc1ccc(-c2nc(C3CCOCC3)cc3[nH]nc(N)c23)cc1 [Example 115, N-(4-(3-amino-6-(tetrahydro-2H-pyran-4-yl)-1H-pyrazolo[4,3-c]pyridin-4-yl)benzyl)-5-fluoro-2-methoxybenzamide]
NIH/3T3 BTK C481S cells; [1]
  IC50: 5 to 10 nM
NIH/3T3 BTK WT cells; [2]
  IC50: ≤ 5 nM
Ramos cells with BTK WT; Homo sapiens, Ramos
  IC50: ≤ 5 nM

## COc1ccc(F)cc1C(=O)NCc1ccc(-c2ncc(-c3ccc(C)cn3)c3[nH]nc(N)c23)cc1 [Example 37, N-(4-(3-amino-7-(5-methylpyridin-2-yl)-1H-pyrazolo[4,3-c]pyridin-4-yl)benzyl)-5-fluoro-2-methoxybenzamide]
NIH/3T3 BTK C481S cells; [1]
  IC50: ≤ 5 nM
NIH/3T3 BTK WT cells; [2]
  IC50: ≤ 5 nM
Ramos cells with BTK WT; Homo sapiens, Ramos
  IC50: ≤ 5 nM

## COc1ccc(F)cc1C(=O)NCc1ccc(-c2ncc(-c3ccc(OCCN4CCOCC4)cn3)c3[nH]nc(N)c23)cc1 [Example 61, N-(4-(3-amino-7-(5-(2-morpholinoethoxy)pyridin-2-yl)-1H-pyrazolo[4,3-c]pyridin-4-yl)benzyl)-5-fluoro-2-methoxybenzamide]
NIH/3T3 BTK C481S cells; [1]
  IC50: ≤ 5 nM
NIH/3T3 BTK WT cells; [2]
  IC50: ≤ 5 nM
Ramos cells with BTK WT; Homo sapiens, Ramos
  IC50: ≤ 5 nM

## COc1ccc(F)cc1C(=O)NCc1ccc(-c2nc(C(C)C(F)(F)F)c(-c3ncccn3)c3[nH]nc(N)c23)cc1 (single isomer, unassigned) [Example 7-2, N-(4-(3-amino-7-(pyrimidin-2-yl)-6-(1,1,1-trifluoropropan-2-yl)-1H-pyrazolo[4,3-c]pyridin-4-yl)benzyl)-5-fluoro-2-methoxybenzamide]
NIH/3T3 BTK C481S cells; [3]
  IC50: 5 to 10 nM
NIH/3T3 BTK WT cells; [4]
  IC50: ≤ 5 nM
Ramos cells with BTK WT
  IC50: 5 to 10 nM

## COc1ccc(F)cc1C(=O)NCc1ccc(-c2ncc(-c3ccn(CC(=O)N(C)C)n3)c3[nH]nc(N)c23)cc1 [Example 25, N-(4-(3-amino-7-(1-(2-(dimethylamino)-2-oxoethyl)-1H-pyrazol-3-yl)-1H-pyrazolo[4,3-c]pyridin-4-yl)benzyl)-5-fluoro-2-methoxybenzamide]
NIH/3T3 BTK C481S cells; [1]
  IC50: 10 to 50 nM
NIH/3T3 BTK WT cells; [2]
  IC50: 10 to 50 nM
Ramos cells with BTK WT; Homo sapiens, Ramos
  IC50: 5 to 10 nM

## COc1ccc(F)cc1C(=O)NCc1ccc(-c2nc(C(C)C(F)(F)F)cc3[nH]nc(N)c23)cc1 (single isomer, unassigned) [Example 2, N-(4-(3-amino-6-(1,1,1-trifluoropropan-2-yl)-1H-pyrazolo[4,3-c]pyridin-4-yl)benzyl)-5-fluoro-2-methoxybenzamide]
NIH/3T3 BTK C481S cells; [1]
  IC50: 10 to 50 nM
NIH/3T3 BTK WT cells; [2]
  IC50: 5 to 10 nM
Ramos cells with BTK WT; Homo sapiens, Ramos
  IC50: 5 to 10 nM

## COc1ccc(F)cc1C(=O)NCc1ccc(-c2ncc(-c3ccc(N4CCOCC4)cn3)c3[nH]nc(N)c23)cc1 [Example 76, N-(4-(3-amino-7-(5-morpholinopyridin-2-yl)-1H-pyrazolo[4,3-c]pyridin-4-yl)benzyl)-5-fluoro-2-methoxybenzamide]
NIH/3T3 BTK C481S cells; [1]
  IC50: ≤ 5 nM
NIH/3T3 BTK WT cells; [2]
  IC50: ≤ 5 nM
Ramos cells with BTK WT; Homo sapiens, Ramos
  IC50: ≤ 5 nM

## COc1ccc(F)cc1C(=O)NCc1ccc(-c2ncc(-c3nc4cccnc4s3)c3[nH]nc(N)c23)cc1 [Example 100, N-(4-(3-amino-7-(thiazolo[5,4-b]pyridin-2-yl)-1H-pyrazolo[4,3-c]pyridin-4-yl)benzyl)-5-fluoro-2-methoxybenzamide]
NIH/3T3 BTK C481S cells; [1]
  IC50: 5 to 10 nM
NIH/3T3 BTK WT cells; [2]
  IC50: ≤ 5 nM
Ramos cells with BTK WT; Homo sapiens, Ramos
  IC50: ≤ 5 nM

## COc1ccc(F)cc1C(=O)NCc1ccc(-c2ncc(-c3ccc(CN4CCOCC4)cn3)c3[nH]nc(N)c23)cc1 [Example 67, N-(4-(3-amino-7-(5-(morpholinomethyl)pyridin-2-yl)-1H-pyrazolo[4,3-c]pyridin-4-yl)benzyl)-5-fluoro-2-methoxybenzamide]
NIH/3T3 BTK C481S cells; [1]
  IC50: ≤ 5 nM
NIH/3T3 BTK WT cells; [2]
  IC50: ≤ 5 nM
Ramos cells with BTK WT; Homo sapiens, Ramos
  IC50: ≤ 5 nM

## COc1ccc(F)cc1C(=O)NCc1ccc(-c2ncc(-c3cccnc3)c3[nH]nc(N)c23)cc1 [Example 105, N-(4-(3-amino-7-(pyridin-3-yl)-1H-pyrazolo[4,3-c]pyridin-4-yl)benzyl)-5-fluoro-2-methoxybenzamide]
NIH/3T3 BTK C481S cells; [1]
  IC50: > 50 nM
NIH/3T3 BTK WT cells; [2]
  IC50: > 50 nM
Ramos cells with BTK WT; Homo sapiens, Ramos
  IC50: > 50 nM

## COc1ccc(F)cc1C(=O)NCc1ccc(-c2ncc(-c3ccc4nccn4n3)c3[nH]nc(N)c23)cc1 [Example 51, N-(4-(3-amino-7-(imidazo[1,2-b]pyridazin-6-yl)-1H-pyrazolo[4,3-c]pyridin-4-yl)benzyl)-5-fluoro-2-methoxybenzamide]
NIH/3T3 BTK C481S cells; [1]
  IC50: 5 to 10 nM
NIH/3T3 BTK WT cells; [2]
  IC50: ≤ 5 nM
Ramos cells with BTK WT; Homo sapiens, Ramos
  IC50: 5 to 10 nM

## COc1ccc(F)cc1C(=O)NCc1ccc(-c2ncc(-c3ccc(S(C)(=O)=O)cn3)c3[nH]nc(N)c23)cc1 [Example 35, N-(4-(3-amino-7-(5-(methylsulfonyl)pyridin-2-yl)-1H-pyrazolo[4,3-c]pyridin-4-yl)benzyl)-5-fluoro-2-methoxybenzamide]
NIH/3T3 BTK C481S cells; [1]
  IC50: ≤ 5 nM
NIH/3T3 BTK WT cells; [2]
  IC50: ≤ 5 nM
Ramos cells with BTK WT; Homo sapiens, Ramos
  IC50: ≤ 5 nM

## COc1ccc(F)cc1C(=O)NCc1ccc(-c2nc(C(C)C(F)(F)F)c(-c3ccn(C)n3)c3[nH]nc(N)c23)cc1 (single isomer, unassigned) [Example 6-2, N-(4-(3-amino-7-(1-methyl-1H-pyrazol-3-yl)-6-(1,1,1-trifluoropropan-2-yl)-1H-pyrazolo[4,3-c]pyridin-4-yl)benzyl)-5-fluoro-2-methoxybenzamide]
NIH/3T3 BTK C481S cells; [3]
  IC50: 10 to 50 nM
NIH/3T3 BTK WT cells; [4]
  IC50: ≤ 5 nM
Ramos cells with BTK WT
  IC50: ≤ 5 nM
